Measurements as given in patent US8658357B2, “Orotate transporter encoding marker genes” (Novozymes A/S, priority 2004, dated 2014).

Key:
[1] = tested on: L. lactis NCDO712 and MG1363; assay: Screening for FOA sensitivity by streaking on SA-glucose plates with FOA; assay type: cell-based, Lactococcus lactis ssp. cremoris
Description: Lactococcal cultures were grown at 30° C. either in M17 broth (Terzaghi and Sandine, 1975) or in minimal SA-medium (Jensen and Hammer, 1993) supplemented with 0.5% and 1% glucose, respectively. E. coli strains were grown at 37° C. either in Luria-Bertani (LB) broth or in minimal ABTG medium (Clark and Maaløe, 1967). B. subtilis strains were grown at 37° C. either in LB medium or in minimal MM medium. Agar plates were made by adding […] agar to the broth medium. If necessary, the following supplements were added to the different media: orotate at 20 micro-g/ml, uracil at 20 micro-g/ml, 5-fluoroorotate (FOA) at 20 micro-g/ml, erythromycin at 5 micro-g/ml, chloramphenicol at 5 micro-g/ml for lactococci and 20 micro-g/ml for E. coli, ampicillin at 100 micro-g/ml.
QIAGEN™ purified plasmid DNA of pED210 and pCI3440 was introduced into competent NCDO712 and MG1363 cells by electroporation, and transformants harboring either plasmid pED210 or pCI3440 were selected at 30° C. on SR plates supplemented with 5 micro-g/ml chloramphenicol. Transformants harboring either pED210 or pCI3440 were screened for FOA sensitivity by streaking them on SA-glucose plates with 20 micro-g/ml FOA, and incubation overnight at 30° C.

E. coli XL1-Blue = assay: Screening for fluoroorotate sensitivity by streaking on ABTG plates; assay type: cell-based, Escherichia coli
Description: QIAGEN™-purified plasmid DNA of pED301 (ysbC), or pDG268 (negative control) was introduced into competent XL1-Blue cells by the heat shock procedure, and transformants harboring plasmid pED301 or pDG268 were selected at 37° C. on LB plates supplemented with 100 micro-g/ml ampicillin. Transformants were screened for fluoroorotate sensitivity by streaking them on ABTG plates without or with 20 micro-g/ml fluoroorotate and incubation overnight at 37° C.

[2] = tested on: B. subtilis HH263 derived strains ED344 and ED348; assay: FOA sensitivity by streaking on selective MM plates; assay type: cell-based, Bacillus subtilis
Description: The resulting strains were denoted ED344 (HH263 amyE::pDG268) and ED348 (HH263 amyE::pED301). ED344 and ED348 were streaked on selective MM plates containing 5 micro-g/ml neomycine, one with 20 micro-g/ml FOA, and one without. The screening plates were incubated overnight at 37° C.

What does the source list for `O=C(O)c1[nH]c(=O)[nH]c(=O)c1F` [FOA, 5-fluoroorotate]?
FOA resistance/sensitivity (growth) ([1]; L. lactis strain ED79.1175 (MG1363 ΔpyrDa ΔpyrDb)): resistant; FOA resistance/sensitivity (growth) ([1]; NCDO712 and MG1363 containing plasmid pED210 (ysbC), 20 micro-g/ml FOA, SA-glucose plates, overnight 30° C.): sensitive; FOA resistance/sensitivity (growth) ([1]; NCDO712 and MG1363 containing vector pCI3440 (control), 20 micro-g/ml FOA, SA-glucose plates, overnight 30° C.): resistant; FOA resistance/sensitivity (growth) ([1]; untransformed L. lactis NCDO712 and MG1363): resistant; FOA resistance/sensitivity (growth) (E. coli XL1-Blue; XL1-Blue harbouring pED301 (ysbC), 20 micro-g/ml fluoroorotate, ABTG plates, overnight 37° C.): sensitive; FOA resistance/sensitivity (growth) (E. coli XL1-Blue; untransformed E. coli XL1-Blue): resistant; FOA resistance/sensitivity (growth) ([2]; ED344 (HH263 amyE::pDG268, control), 20 micro-g/ml FOA, MM plates, overnight 37° C.): resistant; FOA resistance/sensitivity (growth) ([2]; ED348 (HH263 amyE::pED301, ysbC), 20 micro-g/ml FOA, MM plates, overnight 37° C.): sensitive; FOA resistance/sensitivity (growth) ([2]; untransformed B. subtilis HH263 (168 trpC2)): resistant
